Data taken from patent US10508105B2, “Indazole compounds as mGluR4 allosteric potentiators, compositions, and methods of treating neurological dysfunction” (Vanderbilt University, priority 2017, dated 2019).

The compounds below were run against human mGlu4 (Homo sapiens (Human), UniProt Q14833) (assay: mGlu4 PAM assay in human mGlu4/Gqi5 cells with ~EC20 glutamate (Hamamatsu FDSS)). Conditions: ~EC20 concentration of glutamate, read-out: mGlu4 PAM EC50.
Assay type: cell-based
Description: The disclosed compounds and compositions can be evaluated for their ability to act as a potentiatior of metabotropic glutamate receptor activity, in particular mGluR4 activity, by any suitable known methodology known in the art. For example, Chinese Hamster Ovary (CHO) cells transfected with human mGluR4 or HEK cells co-transfected with rat mGluR4 and the G-protein regulated Inwardly Rectifying Potassium channel (GIRK) were plated in clear bottom assay plates for assay in a Hamamatsu FDSS Fluorometric Plate Reader. The cells were loaded with either a Ca2+-sensitive fluorescent dye or the thallium responsive dye and the plates were washed and placed into a suitable kinetic plate reader. For human mGluR4 assays, a fluorescence baseline was established for 3-5 seconds, the disclosed compounds were then added to the cells, and the response in cells was measured. Approximately two and a half minutes later, a concentration of mGluR4 orthosteric agonist (e.g. glutamate, L-AP4, or L-SOP) eliciting approximately 20% (EC20) of the maximal agonist response was added to the cells, and the response was measured. Two minutes later, a concentration of mGluR4 agonist (e.g. glutamate, L-AP4, or L-SOP) eliciting 80% (EC80) of the maximal agonist response was added to the cells, and the response was measured. For rat mGluR4/GIRK experiments, a baseline was established for approximately five seconds, disclosed compounds were added, and either an EC20 or EC80 concentration of agonist was added approximately two and one half minutes later.
The above described assay operated in two modes. In the first mode, a range of concentrations of the disclosed compounds are added to cells, followed by a single fixed concentration of agonist. If the compound acts as a potentiatior, an EC50 value for potentiation and a maximum extent of potentiation by the compound at this concentration of agonist is determined by non-linear curve fitting. If the compound acts as an antagonist, an IC50 value is determined by non-linear curve fitting. In the second mode, several fixed concentrations of the disclosed compounds are added to various wells on a plate, followed by a range in concentrations of agonist for each concentration of disclosed compound. The EC50 values for the agonist at each concentration of compound are determined by non-linear curve fitting. A decrease in the EC50 value of the agonist with increasing concentrations of the sample compound (a leftward shift of the agonist concentration-response curve) is an indication of the degree of mGluR4 potentiation at a given concentration of the sample compound. A decrease in the maximal response of the agonist with increasing concentrations of the sample compounds, with or without a rightward shift in agonist potency, is an indication of the degree of antagonism at mGluR4. The second mode also indicates whether the sample compounds also affect the maximum response to mGluR4 to agonists.

Chain of human mGlu4 (Q14833 33-912): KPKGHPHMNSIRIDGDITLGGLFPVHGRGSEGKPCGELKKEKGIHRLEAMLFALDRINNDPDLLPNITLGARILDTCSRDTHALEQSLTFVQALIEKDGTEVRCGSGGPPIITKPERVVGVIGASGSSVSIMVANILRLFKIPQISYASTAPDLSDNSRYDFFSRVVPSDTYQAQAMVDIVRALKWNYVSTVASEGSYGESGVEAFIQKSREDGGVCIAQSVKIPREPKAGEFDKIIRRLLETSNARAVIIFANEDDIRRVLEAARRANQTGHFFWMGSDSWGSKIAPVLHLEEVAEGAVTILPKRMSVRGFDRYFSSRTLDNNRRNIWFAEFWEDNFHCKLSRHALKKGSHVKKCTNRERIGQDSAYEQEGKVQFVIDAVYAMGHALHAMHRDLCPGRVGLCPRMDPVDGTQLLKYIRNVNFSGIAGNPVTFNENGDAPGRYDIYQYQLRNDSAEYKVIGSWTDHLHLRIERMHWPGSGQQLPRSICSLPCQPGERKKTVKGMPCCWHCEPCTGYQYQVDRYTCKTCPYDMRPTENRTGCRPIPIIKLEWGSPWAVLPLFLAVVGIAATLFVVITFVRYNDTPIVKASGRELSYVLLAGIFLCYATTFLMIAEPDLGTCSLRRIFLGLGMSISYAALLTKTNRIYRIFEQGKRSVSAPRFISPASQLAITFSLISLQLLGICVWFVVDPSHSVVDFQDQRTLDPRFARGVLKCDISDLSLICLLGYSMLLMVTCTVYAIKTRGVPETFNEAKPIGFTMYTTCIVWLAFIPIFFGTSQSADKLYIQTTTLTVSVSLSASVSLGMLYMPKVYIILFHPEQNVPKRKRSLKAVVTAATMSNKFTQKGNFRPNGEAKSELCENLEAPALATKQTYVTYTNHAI

| SMILES | EC50 [µM] |
| --- | --- |
| Cn1nc(OC2CCOC[C@H]2F)c2ccc(NC(=O)c3ncccc3O)cc21 (some centres unmarked) [Compound 72] | 0.132 |
| Cn1nc(C(=O)NC2CCOC2)c2ccc(NC(=O)c3ncccc3N)cc21 (centres unmarked) [Compound 111] | 0.421 |
| Cn1nc(OC2COC2)c2ccc(Nc3n[nH]c4cccnc34)cc21 [Compound 22] | 0.629 |
| CC1CC(Oc2nn(C)c3cc(Nc4n[nH]c5cccnc45)ccc23)CCO1 (centres unmarked) [Compound 65] | 0.134 |
| Cn1nc(OC[C@@H]2COCCO2)c2ccc(NC(=O)c3ncccc3N)cc21 [Compound 93] | 0.0305 |
| Cn1nc(OCC2CCCOC2)c2ccc(NC(=O)c3ccccn3)cc21 (centres unmarked) [Compound 85] | 0.17 |
| Cn1nc(OCC2CCOC(C)(C)C2)c2ccc(NC(=O)c3ccccn3)cc21 (centres unmarked) [Compound 104] | 0.0588 |
| Cn1nc(Oc2ccc(C#N)cn2)c2c(Cl)cc(Nc3n[nH]c4cccnc34)cc21 [Compound 25] | 0.482 |
| Cn1nc(OC2CCS(=O)(=O)CC2)c2ccc(NC(=O)c3ccccn3)cc21 [Compound 39] | 0.417 |
| Cn1nc(OCC2CCOC2)c2ccc(NC(=O)c3nccnc3N)cc21 (centres unmarked) [Compound 92] | 0.115 |
| Cn1nc(OCC2CCOC2)c2ccc(NC(=O)c3ccc(F)cn3)cc21 (centres unmarked) [Compound 91] | 0.0496 |
| Cn1nc(OCC2CCOC2)c2ccc(NC(=O)c3ncccc3N)cc21 (centres unmarked) [Compound 115] | 0.0754 |
| Cn1nc(OC2CCOC(C)(C)C2)c2ccc(NC(=O)c3ncccc3N)cc21 (centres unmarked) [Compound 68] | 0.131 |
| CCCOc1nn(C)c2cc(Nc3n[nH]c4cccnc34)ccc12 [Compound 9] | 0.171 |
| Cn1nc(OC2CC3CCC2O3)c2ccc(Nc3n[nH]c4cccnc34)cc21 (centres unmarked) [Compound 37] | 0.306 |
| Cn1nc(OCC2CCOC(C)(C)C2)c2ccc(NC(=O)c3ncccc3N)cc21 (centres unmarked) [Compound 105] | 0.127 |
| Cn1nc(OC2CCOC2)c2ccc(Nc3n[nH]c4cccnc34)cc21 (centres unmarked) [Compound 28] | 0.726 |
| Cn1nc(OC2CCOC(C)(C)C2)c2ccc(Nc3n[nH]c4cccnc34)cc21 (centres unmarked) [Compound 63] | 0.169 |
| Cn1nc(OC[C@@H]2CCOC2)c2ccc(NC(=O)c3ncccc3N)cc21 [Compound 79] | 0.0273 |
| [2H]C([2H])([2H])Oc1nn(C)c2cc(Nc3n[nH]c4cccnc34)ccc12 [Compound 8] | 0.294 |
| CC1CC(COc2nn(C)c3cc(NC(=O)c4ncccc4N)ccc23)CC(C)O1 (centres unmarked) [Compound 108] | 0.187 |
| Cn1nc(OCC2COC(C)(C)C2)c2ccc(NC(=O)c3ncccc3N)cc21 (centres unmarked) [Compound 102] | 0.109 |
| [2H]C([2H])([2H])n1nc(OCC2CCOC2)c2ccc(NC(=O)c3ccccn3)cc21 (centres unmarked) [Compound 110] | 0.0504 |
| COc1nn(C)c2cc(Nc3n[nH]c4cccnc34)cc(Cl)c12 [Compound 26] | 0.707 |
| Cn1nc(OC2CCS(=O)(=O)C2)c2ccc(NC(=O)c3ncccc3N)cc21 (centres unmarked) [Compound 54] | 0.117 |

| SMILES | EC50 [µM] |
| --- | --- |
| Cn1nc(OC[C@@H]2COCCO2)c2ccc(NC(=O)c3ncccc3N)cc21 [Compound 130] | 0.0246 |
| Cn1nc(OC[C@H]2COCCO2)c2ccc(NC(=O)c3ccccn3)cc21 [Compound 81] | 0.205 |
| Cn1nc(OC[C@H]2CCOC2)c2ccc(NC(=O)c3ncccc3N)cc21 [Compound 80] | 0.0369 |
| Cn1nc(Oc2ccc(C#N)cn2)c2ccc(Nc3n[nH]c4cccnc34)cc21 [Compound 11] | 0.157 |
| Cn1nc(OCC2CCOC2)c2ccc(NC(=O)c3ncccc3O)cc21 (centres unmarked) [Compound 44] | 0.053 |
| CC1CC(COc2nn(C)c3cc(NC(=O)c4ccccn4)ccc23)CC(C)O1 (centres unmarked) [Compound 107] | 0.0451 |
| Cn1nc(OCC2COCCO2)c2ccc(NC(=O)c3ncccc3N)cc21 (centres unmarked) [Compound 82] | 0.0661 |
| CC1CC(Oc2nn(C)c3cc(NC(=O)c4ccccn4)ccc23)CCO1 (centres unmarked) [Compound 73] | 0.398 |
| Cc1ccoc1C(=O)Nc1ccc2c(OCC3CCOC3)nn(C)c2c1 (centres unmarked) [Compound 96] | 0.339 |
| [2H]C([2H])(C)Oc1nn(C)c2cc(Nc3n[nH]c4cccnc34)ccc12 [Compound 7] | 0.356 |
| CC1CC(COc2nn(C)c3cc(NC(=O)c4ccc(F)cn4)ccc23)CC(C)O1 (centres unmarked) [Compound 109] | 0.0836 |
| Cn1nc(OCC(F)(F)F)c2ccc(Nc3n[nH]c4cccnc34)cc21 [Compound 13] | 0.175 |
| Cn1nc(OCCN2CCOCC2)c2ccc(NC(=O)c3ccccn3)cc21 [Compound 76] | 0.703 |
| Cn1nc(OC2CCOC(C)(C)C2)c2ccc(NC(=O)c3ncccc3O)cc21 (centres unmarked) [Compound 69] | 0.117 |
| Cn1nc(OCC2CCCCO2)c2ccc(Nc3n[nH]c4cccnc34)cc21 (centres unmarked) [Compound 14] | 0.0856 |
| Cc1cc(COc2nn(C)c3cc(Nc4n[nH]c5cccnc45)ccc23)no1 [Compound 12] | 0.203 |
| COCCOc1nn(C)c2cc(Nc3n[nH]c4cccnc34)ccc12 [Compound 23] | 0.38 |
| Cn1nc(OCC2CCOC2)c2ccc(NC(=O)c3cccc(F)n3)cc21 (centres unmarked) [Compound 95] | 0.211 |
| Cn1nc(OCC2CCCOC2)c2ccc(NC(=O)c3ncccc3N)cc21 (centres unmarked) [Compound 86] | 0.182 |
| Cn1nc(OCCN2CCOCC2)c2ccc(NC(=O)c3ncccc3O)cc21 [Compound 78] | 0.255 |
| Cc1ccc(C(=O)Nc2ccc3c(OCC4CCOC4)nn(C)c3c2)nc1 (centres unmarked) [Compound 90] | 0.574 |
| Cn1nc(OCC2CC2(F)F)c2ccc(Nc3n[nH]c4cccnc34)cc21 (centres unmarked) [Compound 31] | 0.112 |
| Cn1nc(OC2CCOC(C)(C)C2)c2ccc(NC(=O)c3ccccn3)cc21 (centres unmarked) [Compound 67] | 0.0802 |
| Cn1nc(OC[C@H]2COCCO2)c2ccc(NC(=O)c3ncccc3N)cc21 [Compound 94] | 0.0587 |
| Cn1nc(OCCOc2ccc(F)cc2)c2ccc(Nc3n[nH]c4cccnc34)cc21 [Compound 18] | 0.852 |

Now from value to compound:

| EC50 [µM] | SMILES |
| --- | --- |
| 0.575 | Cn1nc(O[C@H]2CCOC2)c2ccc(Nc3n[nH]c4ncccc34)cc21 [Compound 33] |
| 0.176 | Cn1nc(OCC2COCCO2)c2ccc(Nc3n[nH]c4ncccc34)cc21 (centres unmarked) [Compound 112] |
| 0.0964 | Cn1nc(OCC2COC2)c2ccc(Nc3n[nH]c4cccnc34)cc21 [Compound 27] |
| 0.398 | Cn1nc(OCCN2CCOCC2)c2ccc(Nc3n[nH]c4ncccc34)cc21 [Compound 66] |
| 0.599 | Cn1nc(OCC2CCOCC2)c2ncc(NC(=O)c3ncccc3O)cc21 [Compound 59] |
| 0.181 | Cn1nc(OCC2CCCOC2)c2ncc(NC(=O)c3ncccc3N)cc21 (centres unmarked) [Compound 89] |
| 0.166 | Cn1nc(OC[C@H]2CCOC2)c2ncc(NC(=O)c3ncccc3N)cc21 [Compound 84] |
| 0.0877 | Cn1nc(OCC2CCOCC2)c2ccc(NC(=O)c3ncccc3N)cc21 [Compound 117] |
| 0.12 | Cn1nc(OC[C@@H]2CCOC2)c2ncc(NC(=O)c3ncccc3N)cc21 [Compound 83] |
| 0.209 | Cn1nc(OCC2CCOCC2)c2ncc(Nc3n[nH]c4cccnc34)cc21 [Compound 61] |
| 0.335 | Cn1nc(OC2CCS(=O)(=O)CC2)c2ccc(Nc3n[nH]c4ncccc34)cc21 [Compound 48] |
| 0.0368 | Cn1nc(OCC2CCOCC2)c2ccc(NC(=O)c3ncccc3O)cc21 [Compound 118] |
| 0.0454 | Cn1nc(OC2CCOCC2)c2ccc(Nc3n[nH]c4cccnc34)cc21 [Compound 20] |
| 0.0404 | Cn1nc(OCC2CCOCC2)c2ccc(Nc3n[nH]c4cccnc34)cc21 [Compound 51] |
| 0.873 | Cn1nc(OCC2CCOC2)c2ncc(NC(=O)c3ccccn3)cc21 (centres unmarked) [Compound 55] |
| 0.0505 | Cn1nc(OCC2CCOCC2)c2ncc(NC(=O)c3ncccc3N)cc21 [Compound 58] |
| 0.135 | Cn1nc(OCC2CCOC2)c2ccc(Nc3n[nH]c4ncccc34)cc21 (centres unmarked) [Compound 50] |
| 0.0868 | Cn1nc(OCC2CCOC2)c2ncc(NC(=O)c3ncccc3N)cc21 (centres unmarked) [Compound 56] |
| 0.293 | Cn1nc(OCC2CCOC2)c2ncc(Nc3n[nH]c4cccnc34)cc21 (centres unmarked) [Compound 60] |
| 0.353 | Cn1nc(OCC2CCOCC2)c2ncc(Nc3n[nH]c4ncccc34)cc21 [Compound 62] |
| 0.164 | Cn1nc(OCC2CC2)c2ccc(Nc3n[nH]c4cccnc34)cc21 [Compound 5] |
| 0.063 | Cn1nc(OCC2CCOCC2)c2ccc(NC(=O)c3ccccn3)cc21 [Compound 116] |
| 0.157 | Cn1nc(OCC2CCOCC2)c2ccc(Nc3n[nH]c4ncccc34)cc21 [Compound 52] |
| 0.0638 | Cn1nc(OCC2CCCOC2)c2ccc(Nc3n[nH]c4cccnc34)cc21 (centres unmarked) [Compound 88] |
